One may read the GI50 as the concentration giving 50% growth inhibition.

What all share (assay): DTP human tumour cell line panel, 48 h
The test system of assay [1] is CCRF-CEM.
Assay [2] has as its system CAKI-1.
Assay [3] deals with SNB-19.
The subject of assay [4] is SK-OV-3.
In assay [5] the test system is 786-0.
Assay [6] deals with K562.
Assay [7] concerns LOX IMVI.
The test system of assay [8] is OVCAR-8.
For assay [9], the system named is UACC-257.
Assay [10] relates to DLD-1.
For assay [11], the system named is HCT-116.
In assay [12] the test system is SN12C.
The subject of assay [13] is NCI-H522.
Assay [14] has as its system SF-268.
Assay [15] deals with HL-60.
Assay [16] deals with SR.
The test system of assay [17] is PC-3.
The test system of assay [18] is HOP-92.
In assay [19] the test system is MDA-N.
For assay [20], the system named is BT-549.

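Five compound concentrations were applied to cells in 96-well plates for 48 hours; endpoints were derived by simple linear interpolation of the resulting dose-response curve. Abbreviation: GI50, concentration required for 50% inhibition of growth.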 Activity calls are given as the source filed them. No stated cut-off is given here; in the data, active = GI50 up to about 1.1 µM and inactive = higher. A value given as a limit tells only on which side of the number the result lay.

As to `O=C1CC23CC(=O)CC2(C1)c1ccccc1C3=O` (stereo not given), the GI50 in assay [1], in [2], in assay [3], in [4], in assay [5] and in assay [6] was > 100 µM (inactive) in each case. Moreover, the GI50 in assay [7], in assay [8], in assay [9], in [10], in [11] and in [12] was > 100 µM (inactive) each time. The GI50 in [13], in assay [14] and in assay [15] was > 100 µM (inactive) throughout.
Take `CC(=O)Oc1cccc2c(/C=N/NC(N)=S)ncc(C)c12`: the GI50 in assay [1] was 0.422 µM (active); in assay [2], 4.17 µM (inactive); in assay [3] it was 1.2 µM (inactive); in [16] it was 0.331 µM (active); in assay [4] it was 1.46 µM (inactive); in [5] it was 0.322 µM (active). Also, the GI50 in assay [6] is 1.31 µM (inactive); in [17], 1.9 µM (inactive); in [7], 0.596 µM (active); in [8], 0.463 µM (active); in assay [9], 5.51 µM (inactive); in assay [18], 3.27 µM (inactive). In addition, the GI50 is 1.96 µM (inactive) in assay [11]; 0.863 µM (active) in assay [12]; 3.59 µM (inactive) in assay [19]; 0.705 µM (active) in assay [13]; 0.357 µM (active) in assay [14]; 0.931 µM (active) in assay [15]. For the same compound, in assay [20], the GI50 is 1.28 µM (inactive).
For `S=C(NCCc1ccccn1)N/N=C(\c1ccccc1)c1ccccn1`, the GI50 was < 0.01 µM (active) in assay [1]; < 0.01 µM (active) in assay [2]; 5.43 µM (inactive) in assay [3]; 1.36 µM (inactive) in [16]; 0.815 µM (active) in assay [4]; 1.47 µM (inactive) in [5]. Further, the GI50 was < 0.01 µM (active) in assay [6]; 0.0583 µM (active) in [17]; 0.301 µM (active) in [7]; < 0.01 µM (active) in [8]; 0.113 µM (active) in assay [9]; 1.63 µM (inactive) in assay [18]. Also, the GI50 in assay [11] is < 0.01 µM (active); in assay [12], < 0.015 µM (active); in assay [19], 8.2 µM (inactive); in assay [13] it was < 0.01 µM (active); in assay [14] it was 0.222 µM (active); in assay [15], < 0.0359 µM (active). In assay [20], the GI50 was 3.3 µM (inactive).
Consider `CCOC(=O)/C=C(/C(=O)OCC)n1ccc(=O)[nH]c1=O`, for which the GI50 is 1.14 µM (inactive) in assay [1]; 0.938 µM (active) in assay [2]; 15.4 µM (inactive) in assay [3]; 4.36 µM (inactive) in assay [16]; 18.7 µM (inactive) in assay [4]; 3.36 µM (inactive) in assay [5]. For the same compound, the GI50 is 2.23 µM (inactive) in assay [6]; 13.8 µM (inactive) in assay [17]; 7.48 µM (inactive) in assay [7]; 13 µM (inactive) in [8]; 12.6 µM (inactive) in [9]; 2.07 µM (inactive) in assay [18]. Further, the GI50 is 2.48 µM (inactive) in assay [11]; 7.78 µM (inactive) in assay [12]; 10.8 µM (inactive) in [19]; 0.726 µM (active) in assay [13]; 15.6 µM (inactive) in assay [14]; 1.78 µM (inactive) in [15]. Also, the GI50 in [20] is 12.2 µM (inactive).
Take `Cc1cc(S(=O)(=O)Nc2nc(N)nc(N3CCOCC3)n2)c(SCC(=O)O)cc1Cl`: the GI50 in assay [1], in assay [2], in [3], in assay [16], in assay [4] and in assay [5] was > 10 µM (inactive) in each case. Moreover, the GI50 in assay [6], in assay [17], in assay [7], in assay [8], in assay [9] and in [18] was > 10 µM (inactive) throughout. Besides, the GI50 in assay [11], in [12], in [19], in assay [13], in assay [14] and in assay [15] was > 10 µM (inactive) throughout. The GI50 in assay [20] is > 10 µM (inactive).
For the compound `O=c1cc(N2CCOCC2)n2c(ccc3ccccc32)n1`, the GI50 in [1], in assay [2], in assay [3], in [16], in [4] and in assay [5] was > 100 µM (inactive) each time. The GI50 in assay [6], in assay [17], in assay [7], in [8], in [9] and in assay [18] was > 100 µM (inactive) throughout. For the same compound, the GI50 in assay [11] was > 100 µM (inactive); in assay [12], > 100 µM (inactive); in assay [19] it was 31.7 µM (inactive); in [13], > 100 µM (inactive); in assay [14], > 100 µM (inactive); in assay [15], > 100 µM (inactive). In addition, in assay [20], the GI50 was > 100 µM (inactive).
Turning to `CC(=O)OC1CC2c3cccc4c3C(CC2N(C)C1=O)CN4C(=O)c1ccccc1` (stereo not given), the GI50 in [1] was 20.7 µM (inactive); in assay [2], 23 µM (inactive); in [3], 30.3 µM (inactive); in assay [16], 22.5 µM (inactive); in assay [4] it was 22.7 µM (inactive); in assay [5] it was 15.2 µM (inactive). Moreover, the GI50 in assay [6] was 27.5 µM (inactive); in assay [17] it was 20.2 µM (inactive); in assay [7], 12.1 µM (inactive); in assay [8], 16.4 µM (inactive); in assay [9], 20.5 µM (inactive); in [18], 4.25 µM (inactive). Also, the GI50 in assay [11] is 17 µM (inactive); in assay [12], 18.8 µM (inactive); in [19] it was 21.7 µM (inactive); in assay [13], 4.24 µM (inactive); in [14], 2.2 µM (inactive); in [15] it was 15.2 µM (inactive). Besides, in assay [20], the GI50 was 6.9 µM (inactive).
On to `COc1cc(OC)c2c(c1)OC(c1ccccc1)CC2=O` (stereo not given) [DIMETHYLPINOCEMBRIN], for which the GI50 in [1], in assay [2], in assay [3], in assay [16], in [4] and in assay [5] was > 10 µM (inactive) throughout. The GI50 in [6], in assay [17], in [7], in assay [8], in [9] and in [18] was > 10 µM (inactive) throughout. For the same compound, the GI50 in [11], in assay [12], in assay [19], in [13], in [14] and in assay [15] was > 10 µM (inactive) in each case. Also, the GI50 in [20] is > 10 µM (inactive).
As for `O=C(/C=c1\oc(=O)/c(=C/C(=O)c2ccc(Cl)cc2)oc1=O)c1ccc(Cl)cc1`, the GI50 in assay [1] is 39.4 µM (inactive); in assay [2], > 100 µM (inactive); in assay [3] it was > 100 µM (inactive); in assay [16], 52.6 µM (inactive); in assay [4], > 100 µM (inactive); in [5], > 100 µM (inactive). Moreover, the GI50 in [6] is > 100 µM (inactive); in assay [17], > 100 µM (inactive); in assay [7], 48.4 µM (inactive); in assay [8] it was > 100 µM (inactive); in assay [9] it was > 100 µM (inactive); in assay [18], 43.1 µM (inactive). Further, the GI50 was > 100 µM (inactive) in assay [11]; > 100 µM (inactive) in assay [12]; > 100 µM (inactive) in assay [19]; 19.7 µM (inactive) in assay [13]; 97.3 µM (inactive) in [14]; > 100 µM (inactive) in assay [15]. Also, in [20], the GI50 is 10.4 µM (inactive).
Take `COc1ccc2[nH]cc(C=C3C(=O)NC(=S)NC3=O)c2c1`: the GI50 in assay [1] is 71.8 µM (inactive); in assay [2], > 100 µM (inactive); in [3] it was 62.1 µM (inactive); in assay [16], 30.1 µM (inactive); in assay [4] it was 52.2 µM (inactive); in [5], 31.6 µM (inactive). Moreover, the GI50 in assay [6] was > 100 µM (inactive); in assay [17], > 100 µM (inactive); in assay [7] it was > 100 µM (inactive); in assay [8] it was 36.6 µM (inactive); in [9] it was > 100 µM (inactive); in assay [18] it was 73.6 µM (inactive). Further, the GI50 was > 100 µM (inactive) in assay [11]; > 100 µM (inactive) in assay [12]; > 100 µM (inactive) in assay [19]; > 100 µM (inactive) in [13]; 19.8 µM (inactive) in assay [14]; > 100 µM (inactive) in assay [15]. Moreover, the GI50 in [20] is 53 µM (inactive).
In the case of `CC1=NN(c2cccc(S(=O)(=O)O)c2)C2(C1)C(Cl)C(=O)N2c1nc2ccccc2s1` (stereo not given), the GI50 in assay [1] was 1.26 µM (inactive); in assay [2], 2.9 µM (inactive); in [3], 11.2 µM (inactive); in [16], 7.08 µM (inactive); in assay [4], 11.2 µM (inactive); in assay [5] it was 5.56 µM (inactive). Besides, the GI50 in assay [6] was 3.86 µM (inactive); in [17], 10.5 µM (inactive); in assay [7], 1.25 µM (inactive); in [8] it was 5.65 µM (inactive); in assay [9], 13.6 µM (inactive); in assay [18] it was 2.57 µM (inactive). The GI50 in [11] is 6.47 µM (inactive); in assay [12], 5.37 µM (inactive); in assay [19] it was 13.1 µM (inactive); in [13], 1.81 µM (inactive); in assay [14] it was 7.87 µM (inactive); in assay [15], 2.61 µM (inactive). In addition, the GI50 in assay [20] is 5.5 µM (inactive).

The values are drawn from ChEMBL document CHEMBL1201862, “PubChem BioAssay data set” (2004).
